Calls of active or inactive are those of the source. The calls are words filed in the database; no cut-off is given here.

Tested on in one data set: not listed separately
In words: Competitive binding affinity to Fe3+ ion assessed as metal chelating activity by measuring binding constant by calcein probe based fluorescence displacement assay.
Settings: not given
Consider `Cc1c(O)c(=O)ccn1-c1ccc(NCCN(C)C)cc1`, for which the Kb is 1.4 10^22/M.
For the compound `Cc1c(O)c(=O)ccn1-c1ccc(N2CCN(C)CC2)c(F)c1`, the Kb is 1.17 10^22/M.
As to `CCc1c(O)c(=O)ccn1CCc1ccccc1`, the Kb is 1.69 10^22/M.
On the same count and under the same terms, the result for `Cc1c(O)c(=O)ccn1C` [DEFERIPRONE] reads 1.52 10^22/M; that for `Cc1c(O)c(=O)ccn1-c1ccc(N(C)C)cc1`, 0.98 10^22/M; that for `Cc1c(O)c(=O)ccn1-c1ccc(N2CCOCC2)cc1`, 1.33 10^22/M.
Consider `Cc1c(O)c(=O)ccn1-c1ccc(OCCCN2CCOCC2)cc1`, for which the Kb is 1.23 10^22/M.
With `Cc1c(O)c(=O)ccn1CCc1ccccc1`, the Kb is 1 10^22/M.
In the case of `Cc1c(O)c(=O)ccn1-c1ccc(OCC2CCN(C)CC2)cc1`, the Kb is 1.12 10^22/M.
`Cc1c(O)c(=O)ccn1-c1ccc(OCCOCCN(C)C)cc1`: the Kb is 1.79 10^22/M.

The next data set concerns HK-2. The data set is described as follows: Inhibition of RSL-3 induced ferroptosis in human HK-2 cells incubated for 48 hrs in presence of FAC. It is filed as functional, cell-based. The conditions noted are these: HK-2, 48 h.
A word on the EC50: it is the midpoint of the concentration-response curve. Consider `Cc1c(O)c(=O)ccn1-c1ccc(NCCN(C)C)cc1`, for which the EC50 is 35 µM.
The same measure, in the same setting: the result for `Cc1c(O)c(=O)ccn1-c1ccc(N2CCN(C)CC2)c(F)c1` reads 93 µM.
Consider `CCc1c(O)c(=O)ccn1CCc1ccccc1`, for which the EC50 was greater than 100 µM.
In the case of `Cc1c(O)c(=O)ccn1C` [DEFERIPRONE], the EC50 is greater than 100 µM.
In the case of `Cc1c(O)c(=O)ccn1-c1ccc(N(C)C)cc1`, the EC50 is 45 µM.
As to `Cc1c(O)c(=O)ccn1-c1ccc(N2CCOCC2)cc1`, the EC50 came to 58 µM.
Consider `Cc1c(O)c(=O)ccn1-c1ccc(OCCCN2CCOCC2)cc1`, for which the EC50 was determined as 20 µM.
On to `Cc1c(O)c(=O)ccn1CCc1ccccc1`, for which the EC50 was greater than 100 µM.
For `Cc1c(O)c(=O)ccn1-c1ccc(OCC2CCN(C)CC2)cc1`, the concentration giving a half-maximal response (EC50) came to 43 µM.
Consider `Cc1c(O)c(=O)ccn1-c1ccc(OCCOCCN(C)C)cc1`, for which the concentration for a half-maximal effect (EC50) came to 28 µM.

Tested on in another data set: not listed separately
In words: Cytotoxicity against human HK-2 cells assessed as cell growth inhibition incubated for 48 hrs by SRB assay. It is filed as toxicity, cell-based.
Settings: not given
A word on the CC50: it is the concentration that lowers cell viability or growth by half. Regarding `Cc1c(O)c(=O)ccn1-c1ccc(NCCN(C)C)cc1`, the CC50 at 48 h was greater than 100 µM.
The same measure, in the same setting: under `Cc1c(O)c(=O)ccn1-c1ccc(N2CCN(C)CC2)c(F)c1` stands greater than 100 µM; under `CCc1c(O)c(=O)ccn1CCc1ccccc1`, greater than 100 µM.
Take `Cc1c(O)c(=O)ccn1C` [DEFERIPRONE]: the half-maximal cytotoxic concentration (CC50) at 48 h is greater than 100 µM.
Consider `Cc1c(O)c(=O)ccn1-c1ccc(N(C)C)cc1`, for which the CC50 at 48 h is greater than 100 µM.
For `Cc1c(O)c(=O)ccn1-c1ccc(N2CCOCC2)cc1`, the CC50 at 48 h is greater than 100 µM.
For `Cc1c(O)c(=O)ccn1-c1ccc(OCCCN2CCOCC2)cc1`, the CC50 at 48 h stood at 78 µM.
The same measure, in the same setting: under `Cc1c(O)c(=O)ccn1CCc1ccccc1` stands greater than 100 µM; under `Cc1c(O)c(=O)ccn1-c1ccc(OCC2CCN(C)CC2)cc1`, greater than 100 µM; under `Cc1c(O)c(=O)ccn1-c1ccc(OCCOCCN(C)C)cc1`, 68 µM.

The subject of the next data set is HK-2. The data set is described as follows: Anti-ferroptotic activity against RSL3-induced ferroptosis in human HK-2 cells assessed as decrease in lipid peroxidation by measuring fluorescent intensity preincubated with FAC for 2 hrs followed by compound addition and measured after 12 hrs by flow cytometry analysis. It is filed as functional, cell-based.
Settings: not given
In general terms: In flow cytometry, cells or beads pass a laser one at a time.
Take `Cc1c(O)c(=O)ccn1-c1ccc(OCCCN2CCOCC2)cc1`: the outcome was Active.
In the case of `Cc1c(O)c(=O)ccn1-c1ccc(OCCOCCN(C)C)cc1`, the outcome was Active.

Tested on in another data set: not listed separately
In words: Antioxidant activity assessed as ABTS radical scavenging activity incubated for 6 mins by absorbance based microplate reader analysis.
Settings: not given
It is filed as functional.
In general, IC50 refers to the concentration needed to halve the response being measured. For `Cc1c(O)c(=O)ccn1C` [DEFERIPRONE], the IC50 was 16 µM.
Regarding `Cc1c(O)c(=O)ccn1-c1ccc(OCCCN2CCOCC2)cc1`, the IC50 came to 17.2 µM.
Consider `Cc1c(C)c2c(c(C)c1O)CCC(C)(C(=O)O)O2` (stereo unspecified) [TROLOX], for which the IC50 was found to be 33.7 µM.
In the case of `Cc1c(O)c(=O)ccn1-c1ccc(OCCOCCN(C)C)cc1`, the IC50 worked out at 22.2 µM.

Tested on in a further data set: not listed separately
The data set is described as follows: Potency index, ratio of trolox IC50 to test compound IC50 for antioxidant activity assessed as ABTS radical scavenging activity incubated for 6 mins by absorbance based microplate reader analysis. It is filed as functional.
Settings: not given
Regarding `Cc1c(O)c(=O)ccn1-c1ccc(OCCCN2CCOCC2)cc1`, the Ratio IC50 was 1.5.
As for `Cc1c(O)c(=O)ccn1-c1ccc(OCCOCCN(C)C)cc1`, the Ratio IC50 is 1.5.

The next data set relates to Mus musculus. The data set is described as follows: Reno-protective activity against glycerol-induced rhabdomyolysis acute kidney injury C57BL/6 mouse model assessed as decrease in BUN level at 50 mg/kg, ip preadministered with every 12 hrs of compound for 5 times in first three days with subsequent 1 hrs compound treatment after 16 hrs of water deprivation followed by glycerol administration and measured on day 5. It is filed as functional. On the set-up: scale not given: the % may be the effect or the level left. The conditions noted are these: time 5 day.
For `Cc1c(O)c(=O)ccn1C` [DEFERIPRONE], the Activity turned out to be 18%.

For the next data set, the system named is Mus musculus. In words: Reno-protective activity against glycerol-induced rhabdomyolysis acute kidney injury C57BL/6 mouse model assessed as decrease in serum creatinine level at 50 mg/kg, ip preadministered with every 12 hrs of compound for 5 times in first three days with subsequent 1 hrs compound treatment after 16 hrs of water deprivation followed by glycerol administration and measured on day 5. It is filed as functional. On the set-up: scale not given: the % may be the effect or the level left. Conditions: time 5 day.
Consider `Cc1c(O)c(=O)ccn1C` [DEFERIPRONE], for which the Activity came to 19%.

Tested on in a further data set: not listed separately
The data set is described as follows: Sub-acute in C57BL/6 mouse assessed as animal death at 1 mg/kg, ip measured on day 2. The conditions noted are these: in vivo, 48 h, time 2 day. It is filed as toxicity, organism-based.
Take `Cc1c(O)c(=O)ccn1C` [DEFERIPRONE]: the Activity entry is “Toxic”.
